Measurements published in article PMC11035632, “Discovery of gefitinib-1,2,3-triazole derivatives against lung cancer via inducing apoptosis and inhibiting the colony formation” (Scientific Reports, 2024).

Key:
Assay type in all cases: cell-based
A549 cells = assay: CCK-8 assay for cell proliferation and cytotoxicity, A549; details: Homo sapiens, CCK-8, 48 h
Experimental: A549 cells were cultured in a humidified incubator at 37 °C with 5% CO2 in Ham’s F-12 K (PM150910, Procell) supplemented with 10% FBS and 1% Penicillin Streptomycin.
(§1) Three types of lung cells were seeded into 96-well plate at a density of 5 × 10^3 cells per well at logarithmic growth phase and cultured in 37 °C. […] After that, cell viability was determined according to the instruction of the CCK-8 assay. Next, 10 μL of CCK-8 solution was added to each well of the plate and incubate the plate for 1–4 h in the incubator. The absorbance was measured at 450 nm using a microplate reader (Bio-Tek). The percentage of viable cells was measured using the following formula where three independent experiments were performed: [(A450 sample − A450blank)/(A450 control − A450blank)] × 100%.

NCI-H1299 cells = assay: CCK-8 assay for cell proliferation and cytotoxicity, NCI-H1299; details: Homo sapiens, CCK-8, 48 h
Experimental: as §1

NCI-H1437 cells = assay: CCK-8 assay for cell proliferation and cytotoxicity, NCI-H1437; details: Homo sapiens, CCK-8, 48 h, read-out: IC50 1437
Experimental: as §1

`COc1cc2ncnc(Nc3cccc(-c4cn(Cc5ccc(Cl)cc5)nn4)c3)c2cc1OCCCN1CCOCC1` [Compound 7k] was tested, and the IC50 (A549 cells) was 4.91 ± 0.52 µM, the IC50 (NCI-H1299 cells) was 6.9 ± 0.23 µM and the IC50 (NCI-H1437 cells) was 2.9 ± 0.23 µM.
Molecule `COc1cc2ncnc(Nc3cccc(-c4cn(-c5cccc([N+](=O)[O-])c5)nn4)c3)c2cc1OCCCN1CCOCC1` [Compound 7s] has an IC50 (A549 cells) of 11 ± 0.25 µM, an IC50 (NCI-H1299 cells) of 9.68 ± 0.21 µM and an IC50 (NCI-H1437 cells) of 8.21 ± 0.13 µM.
In the case of `COc1cc2ncnc(Nc3cccc(-c4cn(Cc5cccc(I)c5)nn4)c3)c2cc1OCCCN1CCOCC1` [Compound 7p], the IC50 (A549 cells) is reported as 8.5 ± 0.34 µM, the IC50 (NCI-H1299 cells) is reported as 5.04 ± 0.33 µM and the IC50 (NCI-H1437 cells) is reported as 4.93 ± 0.14 µM.
`COc1cc2ncnc(Nc3cccc(-c4cn(Cc5ccc(Cl)c(F)c5)nn4)c3)c2cc1OCCCN1CCOCC1` [Compound 7c] was tested, and the IC50 (A549 cells) was 5.68 ± 0.14 µM, the IC50 (NCI-H1299 cells) was 6.24 ± 0.32 µM and the IC50 (NCI-H1437 cells) was 3.08 ± 0.47 µM.
`COc1cc2ncnc(Nc3cccc(-c4cn(Cc5ccc(I)cc5)nn4)c3)c2cc1OCCCN1CCOCC1` [Compound 7i] was tested, and the IC50 (A549 cells) was 5.76 ± 0.62 µM, the IC50 (NCI-H1299 cells) was 5.6 ± 0.09 µM and the IC50 (NCI-H1437 cells) was 4.69 ± 0.23 µM.
Work on `COc1cc2ncnc(Nc3cccc(-c4cn(Cc5c(F)cccc5Cl)nn4)c3)c2cc1OCCCN1CCOCC1` [Compound 7d] yielded an IC50 (A549 cells) of 8.5 ± 0.41 µM, an IC50 (NCI-H1299 cells) of 6.04 ± 0.41 µM and an IC50 (NCI-H1437 cells) of 4.83 ± 0.16 µM.
Molecule `COc1cc2ncnc(Nc3cccc(-c4cn(Cc5ccccc5[N+](=O)[O-])nn4)c3)c2cc1OCCCN1CCOCC1` [Compound 7e] has an IC50 (A549 cells) of 4.38 ± 0.07 µM, an IC50 (NCI-H1299 cells) of 5.81 ± 0.12 µM and an IC50 (NCI-H1437 cells) of 2.22 ± 0.18 µM.
`COc1cc2ncnc(Nc3cccc(-c4cn(Cc5ccc(Br)cc5F)nn4)c3)c2cc1OCCCN1CCOCC1` [Compound 7b] was tested, and the IC50 (A549 cells) was 5.28 ± 0.2 µM, the IC50 (NCI-H1299 cells) was 4.6 ± 0.16 µM and the IC50 (NCI-H1437 cells) was 3.65 ± 0.04 µM.
Work on `COc1cc(Cn2cc(-c3cccc(Nc4ncnc5cc(OC)c(OCCCN6CCOCC6)cc45)c3)nn2)cc(OC)c1` [Compound 7o] yielded an IC50 (A549 cells) of 12 ± 0.15 µM, an IC50 (NCI-H1299 cells) of 6.78 ± 0.41 µM and an IC50 (NCI-H1437 cells) of 5.21 ± 0.13 µM.
